From ChEMBL document CHEMBL1201862, “PubChem BioAssay data set” (2004)
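Grown in 96-well plates, cells were treated for 48 hours with each compound at five concentrations. Insufficient inhibition: endpoint recorded as highest concentration tested. The concentration for 50% growth inhibition is given as GI50.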 Active and inactive are the calls of the source. No stated cut-off is given here; in the data, active = GI50 up to about 1.1 µM and inactive = higher.

How the values were obtained:
Test in all cases: growth of human tumour cells (NCI), 48 h
EKVX = system: EKVX
NCI-H23 = system: NCI-H23
Malme-3M = system: Malme-3M
SK-OV-3 = system: SK-OV-3
SK-MEL-5 = system: SK-MEL-5
SN12C = system: SN12C
COLO 205 = system: COLO 205
786-0 = system: 786-0
HCT-116 = system: HCT-116
A549 = system: A549
LOX IMVI = system: LOX IMVI
SNB-75 = system: SNB-75
MCF7 = system: MCF7
BT-549 = system: BT-549
T47D = system: T47D
OVCAR-4 = system: OVCAR-4
HOP-92 = system: HOP-92
UACC-257 = system: UACC-257
NCI/ADR-RES = system: NCI/ADR-RES
UACC-62 = system: UACC-62
SK-MEL-2 = system: SK-MEL-2
Hs-578T = system: Hs-578T
HCT-15 = system: HCT-15
IGROV-1 = system: IGROV-1
K562 = system: K562
A498 = system: A498
UO-31 = system: UO-31
NCI-H522 = system: NCI-H522
SW-620 = system: SW-620
HT-29 = system: HT-29
MDA-N = system: MDA-N
CAKI-1 = system: CAKI-1
SF-295 = system: SF-295
MDA-MB-435 = system: MDA-MB-435
U-251 = system: U-251
ACHN = system: ACHN
KM12 = system: KM12
RPMI-8226 = system: RPMI-8226
OVCAR-5 = system: OVCAR-5
OVCAR-3 = system: OVCAR-3
SF-268 = system: SF-268
TK-10 = system: TK-10
SK-MEL-28 = system: SK-MEL-28
PC-3 = system: PC-3
RXF 393 = system: RXF 393
M14 = system: M14
HL-60 = system: HL-60
MOLT-4 = system: MOLT-4
HOP-62 = system: HOP-62
OVCAR-8 = system: OVCAR-8
HCC 2998 = system: HCC 2998
MDA-MB-231 = system: MDA-MB-231
NCI-H226 = system: NCI-H226
DU-145 = system: DU-145
SNB-19 = system: SNB-19
NCI-H460 = system: NCI-H460
CCRF-CEM = system: CCRF-CEM

## CCCCOC(=O)C1CC[C@H]2[C@@H]3CCc4cc(OC(=O)c5cccc6c(=O)c7ccccc7[nH]c56)ccc4[C@H]3CC[C@]12C (stereo not given in full)
EKVX
  GI50: 2.48 µM (inactive)
NCI-H23
  GI50: 8.95 µM (inactive)
Malme-3M
  GI50: 10.9 µM (inactive)
SK-OV-3
  GI50: 9.86 µM (inactive)
SK-MEL-5
  GI50: 6.46 µM (inactive)
SN12C
  GI50: 8.45 µM (inactive)
COLO 205
  GI50: 7.29 µM (inactive)
786-0
  GI50: 9.89 µM (inactive)
HCT-116
  GI50: 9.31 µM (inactive)
A549
  GI50: 9.35 µM (inactive)
LOX IMVI
  GI50: 8.83 µM (inactive)
SNB-75
  GI50: 10.4 µM (inactive)
MCF7
  GI50: 13.3 µM (inactive)
BT-549
  GI50: 8.17 µM (inactive)
T47D
  GI50: 7.33 µM (inactive)
OVCAR-4
  GI50: 7.78 µM (inactive)
HOP-92
  GI50: 8.3 µM (inactive)
UACC-257
  GI50: 8.47 µM (inactive)
NCI/ADR-RES
  GI50: 11 µM (inactive)
UACC-62
  GI50: 6.84 µM (inactive)
SK-MEL-2
  GI50: 9.91 µM (inactive)
Hs-578T
  GI50: 12.9 µM (inactive)
HCT-15
  GI50: 6.98 µM
IGROV-1
  GI50: 8.13 µM (inactive)
K562
  GI50: 9.98 µM (inactive)
A498
  GI50: 8.83 µM (inactive)
UO-31
  GI50: 8.17 µM (inactive)
NCI-H522
  GI50: 9.64 µM (inactive)
SW-620
  GI50: 12.4 µM (inactive)
HT-29
  GI50: 10.4 µM (inactive)
MDA-N
  GI50: 7.83 µM (inactive)
CAKI-1
  GI50: 7.19 µM (inactive)
SF-295
  GI50: 8.53 µM (inactive)
MDA-MB-435
  GI50: 8.63 µM (inactive)
U-251
  GI50: 9.79 µM (inactive)
ACHN
  GI50: 8.69 µM (inactive)
KM12
  GI50: 9.71 µM (inactive)
RPMI-8226
  GI50: 9.06 µM (inactive)
OVCAR-5
  GI50: 11.3 µM (inactive)
OVCAR-3
  GI50: 8.47 µM (inactive)
SF-268
  GI50: 9.44 µM (inactive)
TK-10
  GI50: 7.96 µM (inactive)
SK-MEL-28
  GI50: 11 µM (inactive)
PC-3
  GI50: 8.71 µM (inactive)
RXF 393
  GI50: 9.48 µM (inactive)
M14
  GI50: 11.3 µM (inactive)
HL-60
  GI50: 5.86 µM (inactive)
MOLT-4
  GI50: 8.81 µM (inactive)
HOP-62
  GI50: 9.35 µM (inactive)
OVCAR-8
  GI50: 10.7 µM (inactive)
HCC 2998
  GI50: 8.87 µM (inactive)
MDA-MB-231
  GI50: 6.98 µM (inactive)
NCI-H226
  GI50: 11.4 µM (inactive)
DU-145
  GI50: 8.17 µM (inactive)

## CN(C)Cc1cc(C(=O)/C=C/c2c(F)cccc2Cl)cc(CN(C)C)c1O
EKVX
  GI50: 12.8 µM (inactive)
NCI-H23
  GI50: 14.9 µM (inactive)
Malme-3M
  GI50: 11.8 µM (inactive)
SNB-19
  GI50: 18.1 µM (inactive)
SK-OV-3
  GI50: 14.1 µM (inactive)
SK-MEL-5
  GI50: 15.3 µM (inactive)
SN12C
  GI50: 4.57 µM (inactive)
COLO 205
  GI50: 10.8 µM (inactive)
786-0
  GI50: 5.61 µM (inactive)
HCT-116
  GI50: 4.48 µM (inactive)
A549
  GI50: 14.3 µM (inactive)
LOX IMVI
  GI50: 4.83 µM (inactive)
SNB-75
  GI50: 8.53 µM (inactive)
MCF7
  GI50: 3.03 µM (inactive)
BT-549
  GI50: 8.2 µM (inactive)
T47D
  GI50: 14.9 µM (inactive)
OVCAR-4
  GI50: 15.2 µM (inactive)
HOP-92
  GI50: 7.52 µM (inactive)
UACC-257
  GI50: 11.4 µM (inactive)
NCI/ADR-RES
  GI50: 17 µM (inactive)
UACC-62
  GI50: 12.3 µM (inactive)
SK-MEL-2
  GI50: 15.6 µM (inactive)
NCI-H460
  GI50: 2.37 µM (inactive)
Hs-578T
  GI50: 17.5 µM (inactive)
HCT-15
  GI50: 4.34 µM
IGROV-1
  GI50: 5.47 µM (inactive)
K562
  GI50: 4.09 µM (inactive)
A498
  GI50: 6.5 µM (inactive)
UO-31
  GI50: 3.7 µM (inactive)
SW-620
  GI50: 9.57 µM (inactive)
HT-29
  GI50: 10.9 µM (inactive)
MDA-N
  GI50: 13 µM (inactive)
CAKI-1
  GI50: 11.5 µM (inactive)
SF-295
  GI50: 11.6 µM (inactive)
MDA-MB-435
  GI50: 13.8 µM (inactive)
U-251
  GI50: 10.8 µM (inactive)
ACHN
  GI50: 3.9 µM (inactive)
KM12
  GI50: 12.8 µM (inactive)
RPMI-8226
  GI50: 17.2 µM (inactive)
OVCAR-5
  GI50: 18.4 µM (inactive)
OVCAR-3
  GI50: 9.18 µM (inactive)
SF-268
  GI50: 10.1 µM (inactive)
TK-10
  GI50: 3.04 µM (inactive)
SK-MEL-28
  GI50: 14.5 µM (inactive)
PC-3
  GI50: 13.7 µM (inactive)
RXF 393
  GI50: 2.69 µM (inactive)
M14
  GI50: 13.2 µM (inactive)
HL-60
  GI50: 3.02 µM (inactive)
MOLT-4
  GI50: 11.1 µM (inactive)
HOP-62
  GI50: 12 µM (inactive)
OVCAR-8
  GI50: 12.4 µM (inactive)
CCRF-CEM
  GI50: 5.13 µM (inactive)
HCC 2998
  GI50: 13.1 µM (inactive)
MDA-MB-231
  GI50: 13.1 µM (inactive)
NCI-H226
  GI50: 13.5 µM (inactive)
DU-145
  GI50: 8.77 µM (inactive)
